≈ marks a conversion by molar mass, not a printed value.
Columns and labels:
[1] = test system: Mycobacterium tuberculosis; experiment: Antimycobacterial activity against INH resistant Mycobacterium tuberculosis after 72 hrs by alamar blue dye-based broth dilution assay; assay type: functional
[2] = Resistant index, ratio of MIC for INH resistant Mycobacterium tuberculosis to MIC for Mycobacterium tuberculosis H37Rv; assay type: functional

| SMILES | MIC [1] | Ratio [2] |
| --- | --- | --- |
| Cc1cc2oc(=O)c(C(c3cccs3)c3c(O)c4cc(C)c(C)cc4oc3=O)c(C)c2cc1C (centres undefined) | 8.34 µM (≈ 3.94 µg/mL) | 1.6 |
| O=c1oc2ccccc2cc1C(c1cccs1)c1c(O)c2ccccc2oc1=O (centres undefined) | 8.34 µM (≈ 3.36 µg/mL) | 1.6 |

Source: ChEMBL document CHEMBL4138081, “Recent developments of coumarin-containing derivatives and their anti-tubercular activity” (Eur J Med Chem, 2017)
